In US20080026447A1, “Assay for determining factor viia inhibitor concentration in plasma samples” (Bristol-Myers Squibb Company, priority 2006, published 2008):
Like-named read-outs stand apart in the source and are kept apart here. One block for each molecule: values may come before it.

Assays:
factor VIIa [1] = target: T1, factor VIIa (Homo sapiens, UniProt P08709); assay: Factor VIIa inhibition in buffer and in factor X deficient human plasma; format: biochemical; settings: 2.5 nM factor VIIa, FIG. 5
T1 construct: proteolytic cleavage of factor X to factor Xa, factor IX to factor IXa and additional factor VII to factor VIIa
T1 sequence (P08709 61-212 limits assumed): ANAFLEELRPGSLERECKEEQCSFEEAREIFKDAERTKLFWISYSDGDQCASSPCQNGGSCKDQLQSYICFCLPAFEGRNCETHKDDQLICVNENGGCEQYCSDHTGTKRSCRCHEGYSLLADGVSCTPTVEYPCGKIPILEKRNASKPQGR
T1 sequence (P08709 213-466 limits assumed): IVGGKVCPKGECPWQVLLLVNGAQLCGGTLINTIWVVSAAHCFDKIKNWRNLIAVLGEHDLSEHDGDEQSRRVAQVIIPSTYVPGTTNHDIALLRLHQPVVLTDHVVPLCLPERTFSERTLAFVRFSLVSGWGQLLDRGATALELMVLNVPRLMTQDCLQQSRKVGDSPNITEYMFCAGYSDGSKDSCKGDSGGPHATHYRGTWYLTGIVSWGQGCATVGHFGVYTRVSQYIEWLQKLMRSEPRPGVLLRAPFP
T1 sequence (P13726 with tags, fused parts or gaps partner limits assumed): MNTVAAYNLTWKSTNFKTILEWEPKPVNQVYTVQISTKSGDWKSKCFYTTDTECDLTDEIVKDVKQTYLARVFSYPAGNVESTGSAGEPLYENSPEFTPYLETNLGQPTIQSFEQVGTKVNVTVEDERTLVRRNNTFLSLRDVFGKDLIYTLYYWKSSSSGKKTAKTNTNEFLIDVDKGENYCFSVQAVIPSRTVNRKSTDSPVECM
Protocol: Protein binding of the inhibitor 2-(1-aminoisoquinolin-6-ylamino)-2-(3-ethoxy-4-isopropoxyphenyl)-N-(4-hydroxyphenylsulfonyl)acetamide was determined by measuring factor VIIa inhibition by the test inhibitor in buffer and then in factor X deficient human plasma. […] In FIG. 5, one set of samples contained 2.5 nM factor VIIa, 28 nM soluble tissue factor, 10 mM CaCl2 100 nM D-Ile-Pro-Arg-AFC and varying concentrations of factor VIIa inhibitor 2-(1-aminoisoquinolin-6-ylamino)-2-(3-ethoxy-4-isopropoxyphenyl)-N-(4-hydroxyphenylsulfonyl)acetamide (Compound B). The second sample set was identical to the first set with the addition of 90% factor X deficient plasma. All samples were diluted in 50 mM HEPES pH 7.5, 150 mM NaCl, 0.1% polyethyleneglycol 8000 and 0.1% bovine serum albumin. The assay was carried out in a fluorescence plate reader at room temperature at an excitation wavelength of 400 nm and an emission wavelength of 535 nm. The fraction of the inhibitor bound to plasma protein was calculated according to the following formula: 1-IC50 in buffer/IC50 in plasma. […] Protein binding of 2-(1-aminoisoquinolin-6-ylamino)-2-(3-ethoxy-4-isopropoxyphenyl)-N-(4-hydroxyphenylsulfonyl)acetamide was determined to be 99.2%.

[2] = Binding of factor VIIa inhibitor to plasma proteins (shift in IC50, buffer vs plasma); format: in vitro ADME; settings: pH 7.5, probe D-Ile-Pro-Arg-AFC (fluorogenic factor VIIa substrate); factor X deficient human plasma; 1-IC50 in buffer/IC50 in plasma; read-out: Protein binding (converted)
Description: Some embodiments of the present invention provide methods for determining the plasma protein binding affinity of a factor VIIa inhibitor for other plasma proteins. Factor VIIa inhibitors having low plasma protein binding affinity for plasma proteins other than factor VIIa are preferred because more unbound factor VIIa inhibitor is available to bind and inhibit factor VIIa. The term “low protein binding factor VIIa inhibitor” as used herein means, a factor VIIa inhibitor that decreases the activity of factor VIIa in the presence or absence of other plasma proteins. […] The fraction of inhibitor bound to plasma protein is calculated by 1-IC50 in buffer/IC50 in plasma.
Protein binding of the inhibitor 2-(1-aminoisoquinolin-6-ylamino)-2-(3-ethoxy-4-isopropoxyphenyl)-N-(4-hydroxyphenylsulfonyl)acetamide was determined by measuring factor VIIa inhibition by the test inhibitor in buffer and then in factor X deficient human plasma. […] The assay was carried out in a fluorescence plate reader at room temperature at an excitation wavelength of 400 nm and an emission wavelength of 535 nm. The fraction of the inhibitor bound to plasma protein was calculated according to the following formula: 1-IC50 in buffer/IC50 in plasma. […] Protein binding of 2-(1-aminoisoquinolin-6-ylamino)-2-(3-ethoxy-4-isopropoxyphenyl)-N-(4-hydroxyphenylsulfonyl)acetamide was determined to be 99.2%.

[3] = Factor VIIa inhibitor concentration in plasma samples from dosed rabbits (functional assay); format: in vivo; settings: sample B6, plasma from dosed rabbit; IC50 of standard curve × plasma dilution factor giving 50% inhibition
Protocol: Plasma was prepared from tested blood samples drawn from rabbits dosed with (R)-N-(5-acetamido-2-(ethylsulfonyl)benzyl)-2-(1-aminoisoquinolin-6-ylamino)-2-(3,4-dimethoxyphenyl)acetamide (Compound C) into buffered citrate. The samples were diluted and combined with tissue factor, factor VIIa, Ca^++, factor Xa inhibitor 2-(3-Aminomethyl-phenyl)-5-trifluoromethyl-2H-pyrazole-3-carboxylic acid (3-fluoro-2′-methanesulfonyl-biphenyl-4-yl)-amide and fluorogenic factor VIIa substrate D-Ile-Pro-Arg-AFC. The inhibitory activity of the tested sample was measured by monitoring the fluorescence of the D-Ile-Pro-Arg-AFC product and comparing the activity to standard curve constructed with plasma from an undosed rabbit spiked with known concentrations of the (R)-N-(5-acetamido-2-(ethylsulfonyl)benzyl)-2-(1-aminoisoquinolin-6-ylamino)-2-(3,4-dimethoxyphenyl)acetamide. […] The assay was carried out in a fluorescent plate reader at room temperature at an excitation wavelength of 400 nm and an emission wavelength of 535 nm. […] IC50 of the standard curve was calculated using floating top and bottom to account for the background signal not originating from factor VIIa activity. […] The concentration of (R)-N-(5-acetamido-2-(ethylsulfonyl)benzyl)-2-(1-aminoisoquinolin-6-ylamino)-2-(3,4-dimethoxyphenyl)acetamide present in sample B6 was calculated to be 338.5 nM. […]

factor VIIa [4] = target: T1, factor VIIa; assay: Factor VIIa substrate hydrolysis (amidolytic activity) in factor X deficient plasma; format: biochemical; settings: 1 μM inhibitor, 85% factor X deficient plasma, 0.5 nM factor VIIa, D-Ile-Pro-Arg-AFC, FIG. 2
Protocol: The assay was carried out in a fluorescence plate reader at room temperature. factor VIIa substrate hydrolysis (amidolytic activity on the substrate) was monitored for 30 minutes at an excitation wavelength of 400 nm and an emission wavelength of 535 nm. […] Such interference is primarily due to hydrolysis of the relatively nonspecific peptide substrate by downstream proteases such as factor Xa and thrombin.

IC50 (factor VIIa [1]; 90% factor X deficient plasma, read-out: IC50 in plasma): 3300 nM
IC50 (factor VIIa [1]; buffer without plasma, read-out: IC50 in buffer): 26 nM
fraction unbound [2]: 0.008
SMILES: CCOc1cc(C(Nc2ccc3c(N)nccc3c2)C(=O)NS(=O)(=O)c2ccc(O)cc2)ccc1OC(C)C (centres unmarked) [Compound B, 2-(1-aminoisoquinolin-6-ylamino)-2-(3-ethoxy-4-isopropoxyphenyl)-N-(4-hydroxyphenylsulfonyl)acetamide]

concentration present in plasma sample [3]: 338.5 nM
SMILES: CCS(=O)(=O)c1ccc(NC(C)=O)cc1CNC(=O)[C@H](Nc1ccc2c(N)nccc2c1)c1ccc(OC)c(OC)c1 [Compound C, (R)-N-(5-acetamido-2-(ethylsulfonyl)benzyl)-2-(1-aminoisoquinolin-6-ylamino)-2-(3,4-dimethoxyphenyl)acetamide]

inhibition of amidolytic activity in factor X deficient plasma (factor VIIa [4]): most of it is inhibited
SMILES: COc1cc([C@@H]2Nc3ccc(C(=N)N)cc3[C@H]3c4ccccc4C[C@H]32)c(-c2ccc(C(=O)O)cc2)cc1O [2′-((6R,6aR,11bR)-2-carbamimidoyl-6,6a,7,11b-tetrahydro-5H-indeno[2,1-c]quinolin-6-yl)-5′-hydroxy-4′-methoxybiphenyl-4-carboxylic acid]
